Assay [1] deals with STIB 719/ILRAD 560 T. vivax (drug sensitive) strain. Nature of the assay: Ex vivo Alamar Blue 48 hrs drug sensitivity assay for T. vivax. It counts as cell-based. To be noted: Trypanosoma vivax, STIB719; STIB 719/ILRAD 560 T. vivax bloodstream form, ex vivo, Alamar Blue, 48 hrs; read-out: T. vivax Act. How it is done:
Ex vivo Alamar Blue48 hrs drug sensitivity assay for T. vivax. Compounds were tested ex vivo for chemotherapeutic efficacy against the STIB 719/ILRAD 560 T. vivax (drug sensitive) strain, using an Alamar Blue assay. Test compounds were prepared as 10 mg/mL DMSO stocks for each assay run. Compounds were assayed in at least three separate, independent test runs and an 11-point dilution curve was used to determine the IC50 values. Bloodstream form trypanosomes were propagated and harvested from a highly parasitaemic mouse (via cardiac puncture) and were incubated with test compounds for 45 hrs at 37° C. in a humidified atmosphere containing 5% CO2, supported in HMI media containing 20% bovine serum. Thereafter, 10 μL of Resazurin dye (12.5 mg in 100 mL of phosphate buffered saline, Sigma-Aldrich, Buchs, Switzerland) were added for an additional 3 hrs. Plates were then read using a fluorescent plate reader (Spectramax, Gemini XS, Bucher Biotec, Basel, Switzerland) using an excitation wavelength of 536 nm and an emission wavelength of 588 nm. Data points were averaged to generate sigmoidal dose-response curves and IC50 values were determined using Softmax Pro 5.2 software.

Assay [2] concerns IL3000 T. congolense (drug sensitive) strain. As to the kind of experiment: In vitro Alamar Blue 72 hrs drug sensitivity assay for T. congolense. It counts as cell-based. To be noted: Trypanosoma congolense, IL3000 T. congolense bloodstream form, read-out: T. congo Act. How it is done: In Vitro Alamar Blue 72 Hrs Drug Sensitivity Assay for T. Congolense. Compounds were tested in vitro for chemotherapeutic efficacy against the IL3000 T. congolense (drug sensitive) strain using an Alamar Blue assay. Test compounds were prepared as 10 mg/mL DMSO stocks for each assay run. Compounds were assayed in at least three separate, independent test runs and an 11-point dilution curve was used to determine the IC50 values. Bloodstream form trypanosomes were supported in HMI media containing 20% bovine serum and were incubated with test compounds for 69 hrs at 34° C. in a humidified atmosphere containing 5% CO2. Thereafter, 10 μL of Resazurin dye (12.5 mg in 100 mL of phosphate buffered saline, Sigma-Aldrich, Buchs, Switzerland) were added for an additional 3 hrs. Plates were then read using a fluorescent plate reader (Spectramax, Gemini XS, Bucher Biotec, Basel, Switzerland) using an excitation wavelength of 536 nm and an emission wavelength of 588 nm. Data points were averaged to generate sigmoidal dose-response curves and IC50 values were determined using Softmax Pro 5.2 software.

For `CC1(Nc2ncc3nc(Nc4cc(Cl)cc(C(F)(F)F)c4)n(C4CCC(CN)CC4)c3n2)CCC1` (stereo not drawn) [A-55, 9-((1s,4s)-4-(aminomethyl)cyclohexyl)-N8-(3-chloro-5-(trifluoromethyl)phenyl)-N2-(1-methylcyclobutyl)-9H-purine-2,8-diamine], the IC50 in assay [1] was 350 to 500 nM; in assay [2], 150 to 350 nM. Take `CC1(Nc2ncc3nc(Nc4cccc(C(F)(F)F)n4)n([C@H]4CC[C@@H](CN)CC4)c3n2)CCOCC1` [A-45, 9-((1s,4s)-4-(aminomethyl)cyclohexyl)-N2-(4-methyltetrahydro-2H-pyran-4-yl)-N8-(6-(trifluoromethyl)pyridin-2-yl)-9H-purine-2,8-diamine]: the IC50 in assay [1] and in assay [2] was 150 to 350 nM throughout. Regarding `CC(C)(C)Nc1ncc2nc(Nc3cccc(C(F)(F)F)c3)n([C@H]3CC[C@H](CN)CC3)c2n1` [A-17, 9-((1r,4r)-4-(aminomethyl)cyclohexyl)-N2-tert-butyl-N8-(3-(trifluoromethyl)phenyl)-9H-purine-2,8-diamine], the IC50 in assay [1] and in assay [2] was under 150 nM throughout. Turning to `CC1(Nc2ncc3nc(Nc4cccc(Cl)c4)n([C@@H]4CCC[C@H](CN)C4)c3n2)CCOCC1` [A-20, 9-((1R,3S)-3-(aminomethyl)cyclohexyl)-N8-(3-chlorophenyl)-N2-(4-methyltetrahydro-2H-pyran-4-yl)-9H-purine-2,8-diamine], the IC50 is under 150 nM in assay [1] and 350 to 500 nM in assay [2]. The matching figures for `CN(C)c1ncc2nc(Nc3cc(C(F)(F)F)ccc3F)n(C3CCC(CN)CC3)c2n1` (stereo not drawn) [B-14, 9-((1s,4s)-4-(aminomethyl)cyclohexyl)-N8-(2-fluoro-5-(trifluoromethyl)phenyl)-N2,N2-dimethyl-9H-purine-2,8-diamine]: under 150 nM and 350 to 500 nM.

Turning to `CC1(Nc2ncc3nc(Nc4cccc(Cl)c4)n([C@H]4CC[C@@H](CN)CC4)c3n2)CC1` [A-51, 9-((1s,4s)-4-(aminomethyl)cyclohexyl)-N8-(3-chlorophenyl)-N2-(1-methylcyclopropyl)-9H-purine-2,8-diamine], the IC50 in assay [1] and in assay [2] was under 150 nM throughout. On to `CC1(Nc2ncc3nc(Nc4cccc(C(F)(F)F)c4)n(C4CCC(CN)CC4)c3n2)CCCC1` (stereo not drawn) [A-12, 9-((1s,4s)-4-(aminomethyl)cyclohexyl)-N2-(1-methylcyclopentyl)-N8-(3-(trifluoromethyl)phenyl)-9H-purine-2,8-diamine], for which the IC50 in assay [1] fell in the range of 150 to 350 nM; in assay [2], 350 to 500 nM.

Consider `CC(C)(C)Nc1ncc2nc(Nc3ccccn3)n(C3CCC(CN)CC3)c2n1` (stereo not drawn) [A-6, 9-((1s,4s)-4-(aminomethyl)cyclohexyl)-N2-tert-butyl-N8-(pyridin-2-yl)-9H-purine-2,8-diamine], for which the values for the IC50 in assay [1] and in assay [2] were under 150 nM and 350 to 500 nM, respectively.

Turning to `CC1(Nc2ncc3nc(Nc4cncc(Cl)c4)n([C@H]4CC[C@@H](CN)CC4)c3n2)CCOCC1` [A-33, 9-((1s,4s)-4-(aminomethyl)cyclohexyl)-N8-(5-chloropyridin-3-yl)-N2-(4-methyltetrahydro-2H-pyran-4-yl)-9H-purine-2,8-diamine], the IC50 is under 150 nM in assay [1] and 150 to 350 nM in assay [2]. The like results for `CC(C)(C)Nc1ncc2nc(Nc3ccc(Cl)c(Cl)c3)n(C3CC(N)C3)c2n1` (stereo not drawn) [A-39, 9-(3-aminocyclobutyl)-N2-tert-butyl-N8-(3,4-dichlorophenyl)-9H-purine-2,8-diamine] were, in that order, 150 to 350 nM and 350 to 500 nM.

On to `CC(C)(C)Nc1ncc2nc(Nc3cccc(C(F)(F)F)c3)n([C@H]3CC[C@H](N)CC3)c2n1` [A-30, 9-((1r,4r)-4-aminocyclohexyl)-N2-tert-butyl-N8-(3-(trifluoromethyl)phenyl)-9H-purine-2,8-diamine], for which the IC50 in assay [1] and in assay [2] was under 150 nM each time. Take `CC1(Nc2ncc3nc(Nc4cccc(Cl)c4)n([C@H]4CC[C@@H](CN5CCOCC5)CC4)c3n2)CCOCC1` [A-41, N8-(3-chlorophenyl)-N2-(4-methyltetrahydro-2H-pyran-4-yl)-9-((1s,4s)-4-(morpholinomethyl)cyclohexyl)-9H-purine-2,8-diamine]: the IC50 in assay [1] was 350 to 500 nM; in assay [2], under 150 nM.

`NCC1CCC(n2c(Nc3cccc(Cl)c3)nc3cnc(NCC(F)(F)F)nc32)CC1` (stereo not drawn) [B-10, 9-((1s,4s)-4-(aminomethyl)cyclohexyl)-N8-(3-chlorophenyl)-N2-(2,2,2-trifluoroethyl)-9H-purine-2,8-diamine]: the results for the IC50 in assay [1] and in assay [2] were under 150 nM and 350 to 500 nM, respectively. Consider `CN(c1ncc2nc(Nc3cccc(Cl)c3)n([C@H]3CC[C@@H](CN)CC3)c2n1)C1CCOCC1` [B-5, 9-((1s,4s)-4-(aminomethyl)cyclohexyl)-N8-(3-chlorophenyl)-N2-methyl-N2-(tetrahydro-2H-pyran-4-yl)-9H-purine-2,8-diamine], for which the IC50 is under 150 nM in assay [1] and 350 to 500 nM in assay [2]. The like results for `NC1CCC(n2c(Nc3cccc(Cl)c3)nc3cnc(NCC4CC4)nc32)CC1` (stereo not drawn) [B-3, 9-((1r,4r)-4-aminocyclohexyl)-N8-(3-chlorophenyl)-N2-(cyclopropylmethyl)-9H-purine-2,8-diamine] were, in that order, 350 to 500 nM and 350 to 500 nM. As to `CC1(Nc2ncc3nc(Nc4cccc(Cl)c4)n([C@H]4CC[C@@H](N)CC4)c3n2)CCOCC1` [A-27, 9-((1s,4s)-4-aminocyclohexyl)-N8-(3-chlorophenyl)-N2-(4-methyltetrahydro-2H-pyran-4-yl)-9H-purine-2,8-diamine], the IC50 in assay [1] and in assay [2] was under 150 nM in each case. As for `CC1(O)CCC(Nc2ncc3nc(Nc4cccc(Cl)c4)n(C4CCC(CN)CC4)c3n2)CC1` (stereo not drawn) [B-11, 4-(9-((1s,4s)-4-(aminomethyl)cyclohexyl)-8-(3-chlorophenylamino)-9H-purin-2-ylamino)-1-methylcyclohexanol], the results for the IC50 in assay [1] and in assay [2] were under 150 nM and 350 to 500 nM, respectively. The like results for `CNc1ncc2nc(Nc3cccc(Cl)c3)n(C3CCC(CN)CC3)c2n1` (stereo not drawn) [B-9, 9-((1s,4s)-4-(aminomethyl)cyclohexyl)-N8-(3-chlorophenyl)-N2-methyl-9H-purine-2,8-diamine] were, in that order, under 150 nM and 350 to 500 nM. The matching figures for `NC1CCC(n2c(Nc3cccc(Cl)c3)nc3cnc(NCC(F)(F)F)nc32)CC1` (stereo not drawn) [B-4, 9-((1r,4r)-4-aminocyclohexyl)-N8-(3-chlorophenyl)-N2-(2,2,2-trifluoroethyl)-9H-purine-2,8-diamine]: under 150 nM and 350 to 500 nM.

For `CNC[C@H]1CC[C@@H](n2c(Nc3cccc(Cl)c3)nc3cnc(NC4(C)CCOCC4)nc32)CC1` [A-21, N8-(3-chlorophenyl)-9-((1s,4s)-4-((methylamino)methyl)cyclohexyl)-N2-(4-methyltetrahydro-2H-pyran-4-yl)-9H-purine-2,8-diamine], the IC50 in assay [1] and in assay [2] was under 150 nM each time.

As for `CC(C)(C)Nc1ncc2nc(Nc3cccc(C(F)(F)F)c3)n([C@H]3CC[C@@H](N)CC3)c2n1` [A-29, 9-((1s,4s)-4-aminocyclohexyl)-N2-tert-butyl-N8-(3-(trifluoromethyl)phenyl)-9H-purine-2,8-diamine], the IC50 in assay [1] and in assay [2] was under 150 nM in each case. `NCC1CCC(n2c(Nc3cccc(Cl)c3F)nc3cnc(NC4CCOCC4)nc32)CC1` (stereo not drawn) [B-13, 9-((1s,4s)-4-(aminomethyl)cyclohexyl)-N8-(3-chloro-2-fluorophenyl)-N2-(tetrahydro-2H-pyran-4-yl)-9H-purine-2,8-diamine]: in assay [2], the IC50 was under 150 nM. Turning to `CC1(Nc2ncc3nc(Nc4cc(C(F)(F)F)ccc4F)n(C4CCC(N)CC4)c3n2)CCOCC1` (stereo not drawn) [A-59, 9-(4-aminocyclohexyl)-N8-(2-fluoro-5-(trifluoromethyl)phenyl)-N2-(4-methyltetrahydro-2H-pyran-4-yl)-9H-purine-2,8-diamine], the results for the IC50 in assay [1] and in assay [2] were under 150 nM and 150 to 350 nM, respectively. In the case of `CC(C)(C)Nc1ncc2nc(Nc3cc(Cl)cc(C(F)(F)F)c3)n(C3CCC(N)CC3)c2n1` (stereo not drawn) [A-53, 9-((1r,4r)-4-aminocyclohexyl)-N2-tert-butyl-N8-(3-chloro-5-(trifluoromethyl)phenyl)-9H-purine-2,8-diamine], the IC50 in assay [1] and in assay [2] was 150 to 350 nM in each case. With `CC1(Nc2ncc3nc(Nc4cccc(C(F)(F)F)c4)n(C4CCC(CN)CC4)c3n2)CCC1` (stereo not drawn) [A-57, 9-((1s,4s)-4-(aminomethyl)cyclohexyl)-N2-(1-methylcyclobutyl)-N8-(3-(trifluoromethyl)phenyl)-9H-purine-2,8-diamine], the IC50 in assay [2] is under 150 nM.

The values above are taken from US10420772B2, “Animal and human anti-trypanosomonal and anti-leishmania agents” (Celgene Corporation, priority 2016, dated 2019).
